Laboratory results from patent publication US5747661A, “Retinoid-inducible response elements” (Howard Hughes Medical Institute).
“Also recorded” adds a separate entry of the source.

T1: GAL4-LXR (Homo sapiens, UniProt Q13133)
T1 construct: hLXRα 166-447; expressed in transfected cells; host or cells: CV-1
T1 sequence (Q13133 166-447): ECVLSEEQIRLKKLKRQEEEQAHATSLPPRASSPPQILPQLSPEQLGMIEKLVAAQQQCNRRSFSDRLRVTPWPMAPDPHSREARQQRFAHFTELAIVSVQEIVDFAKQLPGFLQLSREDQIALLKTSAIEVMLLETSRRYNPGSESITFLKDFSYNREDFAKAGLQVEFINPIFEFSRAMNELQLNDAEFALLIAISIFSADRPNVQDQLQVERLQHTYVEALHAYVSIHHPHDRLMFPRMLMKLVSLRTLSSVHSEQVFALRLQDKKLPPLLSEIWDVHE

T2: GAL4-RAR (Homo sapiens, UniProt P10276)
T2 construct: hRARα 185-462; expressed in transfected cells; host or cells: CV-1
T2 sequence (P10276 185-462): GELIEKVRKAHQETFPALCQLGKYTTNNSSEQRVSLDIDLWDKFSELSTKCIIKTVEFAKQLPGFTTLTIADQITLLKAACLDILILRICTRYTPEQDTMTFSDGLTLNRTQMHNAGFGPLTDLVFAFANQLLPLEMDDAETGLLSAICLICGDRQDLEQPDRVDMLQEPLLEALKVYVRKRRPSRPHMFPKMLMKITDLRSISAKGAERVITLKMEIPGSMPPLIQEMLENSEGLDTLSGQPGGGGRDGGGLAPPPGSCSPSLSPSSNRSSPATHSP


What was measured:
hLXRα = test: CV-1 cotransfection assay, hLXRα expression plasmid with LXRE luciferase reporter (TK-LXRE3-LUC / TK-LXRE2-LUC); assay type: cell-based, human; settings: for LXRα activation of LXRE-containing luciferase reporter (TK-LXRE3-LUC): CV-1 cells, hLXRα transfected alone, 10^-5 M 9cRA, 10^-5 M TTNPB, 10^-4 M methoprene acid, harvested 36 hours after ligand
Method: (§1) CV-1 cells were maintained at 37° C., 5% CO2 in DMEM containing 5% calf bovine serum (CBS). Transfections were performed in 8-well plates in media containing 5% dextran-charcoal stripped CBS by the calcium phosphate coprecipitation technique as described previously (Mangelsdorf et al., (1990) supra). Eight hours after transfections ligands were delivered to cells at 10^3 -fold dilutions (0.1% vol/vol of solvent in media). Retinoids (gifts from Marcus Boehm at Ligand Pharmaceuticals, Inc.) were manipulated under gold light and stored dark in ethanol or methanol under nitrogen gas at -80° C. Cells were harvested 36 hours after addition of ligand and analyzed for luciferase and β-galactosidase activity using a Dynatech microtiter plate Model ML3000 luminometer and a Model MR5000 spectrophotometer, respectively.
(§2) For most experiments, cotransfection of DNA into mammalian cells was accomplished with 50 ng reporter plasmid, 50 ng RSV- or CMX-βgal, 25 ng of each receptor expression plasmid and pGEM carrier to give 375 ng DNA/well. For controls, the empty CMX vector was used in place of the receptor cDNA. For the GAL4-receptor chimera experiments, 30 ng receptor and 80 ng of reporter plasmid were used. For GAL4 and VP16 chimera interaction assays, 30 ng of GAL4-LXRα and 15 ng of the VP16-RAR or -RXR were used along with 80 ng of the reporter plasmid. All transfection data points were normalized using an internal β-galactosidase marker (Mangelsdorf et al., (1990) supra) and represent the mean of duplicate or triplicate assays.
To identify a potential ligand for the orphan receptor LXRα, a cell-based cotransfection screening assay similar to that used to successfully identify the RXR ligand (see Mangelsdorf et al., (1990) supra; Heyman et al., in Cell68:397-406 (1992)) was employed. Initially an LXR responsive gene was unknown, therefore the preliminary experiments were designed to first identify an LXR-specific DNA binding sequence that could serve as an LXR responsive element (referred to as an LXRE). […] Thus, an assay system was established by transfecting CV-1 cells with an expression plasmid harboring the cDNA for LXRα and the luciferase reporter plasmid TK-LXRE3-LUC (see FIG. 2a). TK-LXRE3-LUC contains three copies of the LXRE defined herein; TK-CRBPII-LUC contains the RXRE from the rat CRBPII promoter (Mangelsdorf et al., (1991) supra)); TK-βRE-LUC contains the RAR response element from the mouse RARβ2 promoter (Sucov et al., (1990) supra). Luciferase activity is expressed in relative light units (RLU) and represents the mean of triplicate assays (±SEM) normalized to βgal as an internal standard.
Thus, expression plasmids for hLXRα, hRXRα, or no receptor (-) were cotransfected into CV1 cells in combination with the reporter plasmids TK-LUC or TK-LXRE2-LUC as indicated. […]

GAL4-LXR = molecular target: T1, GAL4-LXR; test: GAL4-receptor chimera ligand activation, GAL4-LXR with TK-MH100x4-LUC in CV1 cells; assay type: cell-based; settings: 10^-5 M 9cRA, 10^-5 M TTNPB, 10^-4 M methoprene acid, FIG. 3c
Method: (§3) FIG. 3C illustrates the ligand specificity of the GAL4-receptor chimeras. […] In both 3B and 3C, CV1 cells were cotransfected as described previously with CMX vectors driving expression of the indicated hybrid proteins and the reporter plasmid TK-MH100x4-LUC, which contains four copies of the GAL4 DNA upstream activation sequence. In FIG. 3C, ligands were added as described with reference to FIG. 2. Luciferase activity is expressed as RLUs (relative light units) corrected for transfection efficiency using an internal […] standard and represents the mean of triplicate assays (±SEM).
Construction of wild-type receptor inserted into the expression vectors RSV and CMX, have been detailed elsewhere (Gigueere et al., in Cell46:645-652 (1986); Umesono et al., in Cell65:1255-1266 (1991); Mangelsdorf et al., (1990) supra). The hLXRα cDNA insert was excised from the plasmid pXR2ΔRV with Kpn1 and BamHI and ligated into the expression vectors RSV and CMX. Chimeric Gal4-receptor expression plasmids (e.g. CMX-GAL4-LXRα) were constructed by first ligating the GAL4 portion of pSG424 (Sadowski and Ptashne, in Nucleic Acids Res. 17:[…] (1989)) into the HindIII/SacI sites of pCMX (Umesono et al., in Cell 65:1255-1266 (1991)) to create pCMX-GAL4. This vector contains the CMV promoter fused to the coding sequence for GAL4 (1-147), followed by inframe polylinker cloning sites and translational stop codons. The cDNAs encoding the ligand-binding domain (LBD) of each of the receptors were then ligated into the polylinker to create GAL4-LBD fusions.
The following receptor amino acid sequences were used for these constructions and their corresponding DNA sequences ligated into pCMX-GAL4:hLXRα 166-447, hRXRα 203-462 and hRARα 185-462.
To address the possibility that the retinoid response elicited by LXRα was through the direct interaction of ligand with the putative ligand binding domain of LXRα, ligand activation experiments were performed with the GAL4-receptor hybrids. […]

RARs = settings: from the literature; cited from earlier work
hRXRα [1] = molecular target: T3, hRXRα (Homo sapiens, UniProt P19793); test: CV-1 cotransfection assay, hRXRα expression plasmid with RXRE luciferase reporter TK-CRBPII-LUC; assay type: cell-based; settings: CV1 cells, 10^-4 M methoprene acid, FIG. 2d
T3 construct: Construction of wild-type receptor inserted into the expression vectors RSV and CMX; expressed in transfected cells; host or cells: CV-1
Method: as §1
as §2, with “All transfection data points were normalized using an internal β-galactosidase marker (Mangelsdorf et al., (1990) supra) and represent the mean of duplicate or triplicate assays.” left out

hRARα = molecular target: T4, hRARα (Homo sapiens, UniProt P10276); test: CV-1 cotransfection assay with RAR response element luciferase reporter (TK-βRE-LUC); assay type: cell-based; settings: CV1 cells; 10^-5 M TTNPB, 10^-4 M methoprene acid; occurs also without transfected RAR or RXR
T4 construct: Construction of wild-type receptor inserted into the expression vectors RSV and CMX; expressed in transfected cells; host or cells: CV-1
Method: as §1
as §2, with “All transfection data points were normalized using an internal β-galactosidase marker (Mangelsdorf et al., (1990) supra) and represent the mean of duplicate or triplicate assays.” left out

GAL4-RXR = molecular target: T5, GAL4-RXR (Homo sapiens, UniProt P19793); test: GAL4-receptor chimera ligand activation, GAL4-RXR with TK-MH100x4-LUC in CV1 cells; assay type: cell-based; settings: 10^-5 M 9cRA, 10^-5 M TTNPB, 10^-4 M methoprene acid, FIG. 3c
T5 construct: hRXRα 203-462; expressed in transfected cells; host or cells: CV-1
Method: as §3
(§4) The hLXRα cDNA insert was excised from the plasmid pXR2ΔRV with Kpn1 and BamHI and ligated into the expression vectors RSV and CMX. […] The cDNAs encoding the ligand-binding domain (LBD) of each of the receptors were then ligated into the polylinker to create GAL4-LBD fusions.
(§5) Such heterologous system provides an effective means for directly assaying receptor/ligand interactions, even in the presence of endogenous wild-type receptors.

GAL4-RAR = molecular target: T2, GAL4-RAR; test: GAL4-receptor chimera ligand activation, GAL4-RAR with TK-MH100x4-LUC in CV1 cells; assay type: cell-based; settings: 10^-5 M 9cRA, 10^-5 M TTNPB, 10^-4 M methoprene acid, FIG. 3c
Method: as §3, §4, §5

LXR/RXR heterodimer = molecular target: T6, LXR/RXR heterodimer (Homo sapiens, UniProt P19793); test: CV1 cotransfection of both hLXRα and hRXRα with LXRE reporter TK-LXRE2-LUC; assay type: cell-based; settings: CV1 cells, 25 ng hLXRα:2.5 ng hRXRα; 10^-4 M methoprene acid; FIG. 4
T6 construct: Construction of wild-type receptor inserted into the expression vectors RSV and CMX; expressed in transfected cells; host or cells: CV-1
Method: Thus, expression plasmids for hLXRα, hRXRα, or no receptor (-) were cotransfected into CV1 cells in combination with the reporter plasmids TK-LUC or TK-LXRE2-LUC as indicated. Cells were then incubated with ethanol control (-) or […] methoprene acid (+) and assayed for luciferase activity as described above. TK-LXRE2-LUC contains two copies of the LXRE. In experiments in which LXR and RXR plasmids were cotransfected together the ratio of the two expression plasmids was 1:0.1 (25 ng hLXRα:2.5 ng hRXRα). In all other experiments were LXR and RXR were added alone, the amount of each receptor expression plasmid was 25 ng.

hRXRα [2] = molecular target: T3, hRXRα; test: CV1 cotransfection of hRXRα alone with LXRE luciferase reporter; assay type: cell-based; settings: CV1 cells, 25 ng hRXRα; 10^-4 M methoprene acid; FIG. 4
Method: as §1
as §2, with “All transfection data points were normalized using an internal β-galactosidase marker (Mangelsdorf et al., (1990) supra) and represent the mean of duplicate or triplicate assays.” left out

RXRs = settings: from the literature; cited from earlier work
LXRα/RXRα heterodimer = LXRα/RXRα heterodimer (Homo sapiens, UniProt Q13133;P19793 Q13133:1-447,P19793:1-462); test: EMSA; strong complex; supershifted by anti-RXRα; 75 mM KCl, 20 mM Hepes pH 7.4; settings: tags: none; coupled in vitro transcription/translation (Promega); label: 32P; HindIII overhangs
Method: (§6) For EMSA experiments, receptor proteins were generated using a coupled in vitro transcription/translation system according to the manufacturer's instructions (Promega). Sequences of double-stranded oligonucleotides were as shown in the figures and text and were synthesized with HindIII overhangs. Binding reactions were performed in a total volume of 20 μl consisting of 75 mM KCl, 20 mM Hepes, pH 7.4, 2 mM DTT, 7.5% glycerol, 0.1% NP-40, 2
(§7) MG poly (dI-dC) (Pharmacia), 40 pmol of a non-specific single-stranded oligonucleotide (for removal of non-specific binding in the lysates), and 2 μl of receptor lysates or unprogrammed (control) lysates. Reactions containing lysates and competing oligonucleotides were incubated for 30 minutes on ice followed by the addition of 40 fmol of ^32P-labeled oligonucleotide probe (labeled by end-filling) and further incubated for 20 minutes at room temperature. Samples were then analyzed on 5% polyacrylamide gels run in 0.5X TBE buffer. For antibody supershifting experiments, 1 μl of anti-hRXRα antiserum (a gift from Jacki Dyck), or non-specific antiserum was added to the reactions after addition of the radiolabeled probe and incubated at room temperature for 10 minutes, followed by gel electrophoresis.

RXRα = RXRα (Homo sapiens, UniProt P19793 P19793:1-462); test: EMSA; RXRα alone; settings: label: 32P; HindIII overhangs
Method: as §6, §7

T3 sequence (P19793 whole entry): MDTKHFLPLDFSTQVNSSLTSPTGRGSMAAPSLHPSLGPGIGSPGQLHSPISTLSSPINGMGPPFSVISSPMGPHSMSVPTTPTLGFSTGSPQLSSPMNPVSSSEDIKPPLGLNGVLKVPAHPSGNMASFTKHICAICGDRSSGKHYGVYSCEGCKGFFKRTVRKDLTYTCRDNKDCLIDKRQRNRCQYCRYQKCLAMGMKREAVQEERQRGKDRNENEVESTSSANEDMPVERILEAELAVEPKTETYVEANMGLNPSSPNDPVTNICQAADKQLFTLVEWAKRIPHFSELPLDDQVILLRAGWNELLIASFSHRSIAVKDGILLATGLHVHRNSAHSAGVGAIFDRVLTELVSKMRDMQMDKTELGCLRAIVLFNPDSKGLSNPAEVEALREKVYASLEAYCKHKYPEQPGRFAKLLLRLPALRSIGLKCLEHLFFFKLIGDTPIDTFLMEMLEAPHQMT
Chain of LXRα/RXRα heterodimer (P19793 whole entry, one chain of several): as the sequence (P19793 whole entry) above
Chain of RXRα (P19793 whole entry, one chain of several): as the sequence (P19793 whole entry) above
T6 sequence (Q13133 whole entry A196R): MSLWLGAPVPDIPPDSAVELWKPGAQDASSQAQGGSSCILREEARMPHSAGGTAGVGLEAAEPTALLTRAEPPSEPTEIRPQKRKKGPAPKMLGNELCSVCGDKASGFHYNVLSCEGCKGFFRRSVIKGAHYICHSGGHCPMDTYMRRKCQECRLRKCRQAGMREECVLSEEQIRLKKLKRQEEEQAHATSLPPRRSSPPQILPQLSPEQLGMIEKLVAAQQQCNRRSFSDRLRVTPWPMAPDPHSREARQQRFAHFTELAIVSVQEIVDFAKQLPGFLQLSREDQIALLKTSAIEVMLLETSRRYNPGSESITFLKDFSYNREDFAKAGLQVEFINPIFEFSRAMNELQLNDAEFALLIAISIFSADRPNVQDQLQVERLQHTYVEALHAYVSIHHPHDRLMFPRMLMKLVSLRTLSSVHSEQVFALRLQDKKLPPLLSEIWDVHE
T6 sequence (P19793 whole entry): as the sequence (P19793 whole entry) above
T5 sequence (P19793 203-462): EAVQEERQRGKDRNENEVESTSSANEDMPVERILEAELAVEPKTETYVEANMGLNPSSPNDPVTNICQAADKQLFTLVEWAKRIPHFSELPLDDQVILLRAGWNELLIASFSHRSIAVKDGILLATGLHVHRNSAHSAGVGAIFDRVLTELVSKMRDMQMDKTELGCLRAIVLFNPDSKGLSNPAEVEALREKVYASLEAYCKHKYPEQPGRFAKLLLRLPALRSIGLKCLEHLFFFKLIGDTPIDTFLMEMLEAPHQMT
T4 sequence (P10276 whole entry): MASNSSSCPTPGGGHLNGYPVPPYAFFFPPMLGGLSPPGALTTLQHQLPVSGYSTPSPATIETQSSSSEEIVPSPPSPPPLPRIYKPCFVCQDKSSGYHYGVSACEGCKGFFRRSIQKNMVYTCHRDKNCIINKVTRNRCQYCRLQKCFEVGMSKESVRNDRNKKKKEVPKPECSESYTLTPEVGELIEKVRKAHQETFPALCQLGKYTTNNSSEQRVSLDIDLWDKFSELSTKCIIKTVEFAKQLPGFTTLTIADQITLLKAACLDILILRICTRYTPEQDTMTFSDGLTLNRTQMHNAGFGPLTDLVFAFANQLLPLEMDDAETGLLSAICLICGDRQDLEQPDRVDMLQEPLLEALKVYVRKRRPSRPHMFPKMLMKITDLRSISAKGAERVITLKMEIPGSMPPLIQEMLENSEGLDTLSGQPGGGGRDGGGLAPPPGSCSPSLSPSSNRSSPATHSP
T4 sequence (P19793 whole entry, further chain): as the sequence (P19793 whole entry) above

Molecule | LXRα activation of LXRE-containing luciferase reporter (TK-LXRE3-LUC) (hLXRα) | Ligand inducible transactivation by GAL4-LXR chimera (GAL4-LXR) | Ligand binding / specificity for RAR (RARs) | Ligand inducible transactivation by GAL4-RAR chimera (GAL4-RAR) | Ligand binding / specificity for RXR (RXRs) | also measured
C/C(=C\c1ccc(C(=O)O)cc1)c1ccc2c(c1)C(C)(C)CCC2(C)C [TTNPB, (E)-4-[2-(5,6,7,8-tetrahydro-5,5,8,8-tetramethyl-2-napthalenyl) -1-propenyl]benzoic acid] | no effect | no activation | RAR-specific | – | – | –
COC(C)(C)CCCC(C)C/C=C/C(C)=C/C(=O)O (centres unmarked) [methoprene acid] | strongly activated; also recorded: strongly activates transcription | no activation | – | only activates RXR | RXR-specific | Ligand response of TK-LXRE2-LUC with LXRα alone (hLXRα; CV1 cells, 25 ng hLXRα, methoprene acid, FIG. 4): marked ligand response; Response of RXRE reporter TK-CRBPII-LUC in the presence of RXRα (hRXRα [1]; hRXRα transfected): marked response; Response of RXRE reporter TK-CRBPII-LUC with RARα or LXRα transfected instead of RXRα (hRXRα [1]): not RARα or LXRα; Retinoid response of RAR response element reporter (hRARα): occurs through an RXR homodimer; Ligand inducible transactivation by GAL4-RXR chimera (GAL4-RXR): only activates RXR; Retinoid responsive activity of TK-LXRE2-LUC with LXRα and RXRα together (LXR/RXR heterodimer): dramatic synergistic increase; Ligand response of TK-LXRE2-LUC with RXRα alone (hRXRα [2]): no response
CC1=C(/C=C/C(C)=C\C=C\C(C)=C\C(=O)O)C(C)(C)CCC1 [9cRA, 9-cis retinoic acid] | strongly activated | no activation | high affinity ligand for both RARs and RXRs; also recorded: binds to both RXR and RAR | activates both RXR and RAR | high affinity ligand for both RARs and RXRs; also recorded: binds to both RXR and RAR | –
CC1=C(/C=C/C(C)=C/C=C/C(C)=C/C(=O)O)C(C)(C)CCC1 [atRA, All-trans retinoic acid] | – | – | ligand for only RARs | – | ligand for only RARs | –
LXRE (ΔMTV) (dsDNA) DNA 1: CTTGCGGTTCCCAGGGTTTAAATAAGTTCA DNA 2: TGAACTTATTTAAACCCTGGGAACCGCAAG | – | – | – | – | – | binding result (LXRα/RXRα heterodimer): binds; binding result (RXRα): no binding
